Reference: patent US7560609B2, “Diabetic model” (priority 2001, dated 2009)

Experiment: Insulin sensitivity test
Assay type: in vivo, bank voles
Conditions: 60 minutes following insulin
Experimental: In the Group A bank voles (n=101), four female animals were found positive for glucosuria and blood glucose values of 215, 302, 313 and 340 mg/dl, respectively, In the remaining bank voles, the mean blood glucose±S.D. was normally distributed at 101±28 mg/dl. The body weight of the trapped voles from group A ranged from 8.5-28.4 g, the mean value±S.D. was 19±5 g. Occasional hyperglycemic and glucosuric bank voles may therefore be trapped in the wild. Whether these four animals had stress-induced hyperglycemia or overt diabetes remains to be established. […] As many as 18/22 (82%) had ketones and were polydipsic. […] We therefore next examined the pancreas histology in non-diabetic and diabetic bank voles to test if the classification of type 1 diabetes was supported by a loss of beta cells.

Substance: Actrapid: insulin (Actrapid, Novo Nordisk, Copenhagen, Denmark) used in the insulin sensitivity test
- decrease in blood glucose (eight animals with blood glucose <120 mg/dl): 40%
- decrease in blood glucose (four animals with blood glucose at 120-200 mg/dl): 60%
- decrease in blood glucose (four animals with blood glucose levels above 200 mg/dl): 30%
